# Reference: article PMC8597634, “4-Iminooxazolidin-2-One as a Bioisostere of Cyanohydrin Suppresses EV71 Proliferation by Targeting 3C^pro” (Microbiology Spectrum, 2021)
# Like-named read-outs stand apart in the source and are kept apart here.
# Columns and labels:
# [1] = cited from earlier work
# HRV = test system: HRV; set-up: method as in PMID 20066739, PMID 21536800, PMID 23295352, PMID 23633597; settings: cited from earlier work
# EV71 [2] = settings: cited from earlier work
# EV71 3C^pro [3] = target: T1, EV71 3C^pro (Human enterovirus 71, UniProt Q66478); assay: Inhibitor constant (Ki) enzymatic FRET assay; assay type: biochemical; settings: 0.5 μM EV71 3C^pro, 100 μM peptide, 2 h
# T1 construct: The EV71 3C^pro plasmid was amplified and linked into a pET-28a vector; 6xHis; made in house; host or cells: Escherichia coli
# Method: The inhibitor constants (Kis) were determined by fluorescence resonance energy transfer (FRET) using NMA-IEALFQGPPK(DNP)FR peptide. The assays were performed with 50 mM Tris-HCl–150 mM NaCl (pH 7.0) with 0.5 μM EV71 3C^pro and gradient-diluted FOPMC/FIOMC. Subsequently, 100 μM each peptide was hydrolyzed for 2 h. The fluorescence signals were monitored at a microplate reader (Perkin Elmer, USA).
# [4] = test system: EV71 genotype C Fuyang virus; assay: qRT-PCR of viral genome replication, EV71 Fuyang virus in RD cells; assay type: cell-based; settings: Enterovirus A, 24 hpi
# Method: (§1) The viral genome replication inhibition in host cells after treatment with FOPMC and FIOMC was monitored by EV71 genotype C Fuyang virus. Briefly, RD cells were cultured at 1.5 × 10^5 per well at 37°C for 24 h and then incubated with gradient-diluted FOPMC, FIOMC, and virus. The intracellular RNAs were extracted using TRIzol (TransGen, China) after 24 hpi. The real-time quantitative PCR (qRT-PCR) assays were performed with a SYBR RT-PCR kit (Bio-Rad, USA) for the EV71 5′ […] region (UTR) and the host GAPDH. The transcript copies of EV71 5′ UTR and GAPDH were calculated using the threshold cycle (ΔΔCT) method ([35]).
# EV71-luciferase virus [5] = assay: EC50 with EV71-luciferase virus on RD cells; assay type: cell-based; settings: Enterovirus A, 24 h
# Method: (§2) One hundred microliters each of RD (3 × 10^5 cells/ml), VeroE6 (3 × 10^5 cells/ml), and HEK-293T cells (2 × 10^5 cells/ml) was cultured overnight. Each 96-well plate of cells was treated with EV71-luciferase virus and diluted FOPMC/FIOMC (diluted from 3 nM to 20 μM) for 24 h. The luciferase signals were tested using the firefly luciferase kit (Promega, USA). All of the EC50s were profiled by Graph Pad Prism 7.0.
# EV71-luciferase virus [6] = assay: EC50 with EV71-luciferase virus on HEK-293T cells; assay type: cell-based; settings: Enterovirus A, EV71, HEK-293T, 24 h
# Method: as §2
# EV71-luciferase virus [7] = assay: EC50 with EV71-luciferase virus on VeroE6 cells; assay type: cell-based; settings: Enterovirus A, EV71, Vero C1008, 24 h
# Method: as §2
# RD cells = assay: Cytotoxicity (CellTiter-Glo) on RD cells; assay type: cell-based, human; settings: even at 200 μM, 48 h
# Method: (§3) Determination of the cytotoxicity of FOPMC and FIOMC was performed on three cell lines using a CellTiter-Glo kit (Promega, USA). Briefly, RD, VeroE6, and HEK-293T cells were treated with gradient dilutions of […] (from 0.78 to 200 μM) for 48 h. CellTiter-Glo reagents were applied to evaluate the cells' viability by a microplate reader.
# HEK-293T cells = assay: Cytotoxicity (CellTiter-Glo) on HEK-293T cells; assay type: cell-based; settings: even at 200 μM, 48 h
# Method: as §3
# VeroE6 cells = assay: Cytotoxicity (CellTiter-Glo) on VeroE6 cells; assay type: cell-based; settings: even at 200 μM, 48 h
# Method: as §3
# EV71-A = assay: Antiviral activity by qRT-PCR in RD cells, EV71-A; assay type: cell-based; settings: Enterovirus A
# Method: as §1
# (§4) To evaluate the antiviral effect of FOPMC and FIOMC on various viral strains, we measured the EC50s of these two inhibitors on five virus strains. RD cells were treated with FOPMC/FIOMC (0.003 to 50 μM) and each viral strain for 2 h. The antiviral activity was conducted by qRT-PCR according to the method described above.
# EV71-B = assay: Antiviral activity by qRT-PCR in RD cells, EV71-B; assay type: cell-based; settings: Enterovirus A
# Method: as §1, §4
# EV71-C = assay: Antiviral activity by qRT-PCR in RD cells, EV71-C; assay type: cell-based; settings: Enterovirus A
# Method: as §1, §4
# CVA16 = assay: Antiviral activity by qRT-PCR in RD cells, CVA16; assay type: cell-based, coxsackievirus A16; settings: Enterovirus A
# Method: as §1, §4
# CVB3 = assay: Antiviral activity by qRT-PCR in RD cells, CVB3; assay type: cell-based, coxsackievirus B3; settings: Enterovirus B
# Method: as §1, §4
# five viral strains = assay: Antiviral activity on five viral strains (summary in discussion); assay type: cell-based; settings: read-out: EC50s depending on the specific virus
# Method: as §4
# EV71-GFP = assay: Phenotype assay with EV71-GFP reporter virus in RD cells; assay type: cell-based; settings: 0.16 to 20 μM, 24 h
# Method: RD cells (3 × 10^4 per well) were cultured in 96-well plates overnight. Diluted compounds (0.16 to 20 μM) and EV71-GFP reporter virus were added to RD cells. After 24 hpi, the GFP was monitored using confocal microscopy (Olympus, Japan).
# EV71 VP1 = assay: Expression of EV71 VP1 in RD cells; assay type: cell-based; settings: GAPDH invariable
# EV71-luciferase virus [8] = assay: Time-of-addition assay with EV71-luciferase virus in RD cells; assay type: cell-based; settings: −6 to 10 hpi, FOPMC 5 μM, FIOMC 5 μM, GPP3 1 μM
# pEV71-replicon RNA = pEV71-replicon RNA assay in RD cells; assay type: cell-based, EV71; settings: RD cells transfected with pEV71-replicon RNA, 5 μM
# Method: RD cells (3 × 10^4 per well) were treated with FOPMC (5 μM), FIOMC (5 μM), GPP3 (1 μM), NK-1.8k (2 μM), and EV71-luciferase virus, respectively. Another plate of RD cells was treated with the same concentrations of the four inhibitors and transfected with pEV71-replicon RNA. After 24 hpi, the luciferase activity was determined using Bright-Glo luciferase substrate (Promega, USA).
# EV71 3C^pro [9] = target: T1, EV71 3C^pro; assay: Hydrolytic activity inhibition of EV71 3C^pro on precursor 3BC (SDS-PAGE); assay type: biochemical; settings: 100 μM 3C^pro, molar ratio 1:5, GST-3BC-C147A 50 μM
# Method: To ascertain whether FOPMC and FIOMC inactivated EV71 3C^pro to hydrolyze the precursor 3BC, the fusion protein GST-3BC with a catalytic central residue C147A mutation was expressed. A 100 μM concentration of EV71 3C^pro and FOPMC/FIOMC (at a molar ratio of 1:5) was incubated at 30°C for 2 h. GST-3BC (50 μM) protein was added for another 4 h, and the reagents were analyzed using SDS-PAGE.
# EV71 [10] = assay: Selection of resistant virus by continuous culture of EV71; assay type: cell-based; settings: EV71 cultured for 20 rounds, sequence analyses
# [11] = cited from earlier work; remark: listed apart in the source
# EV-D68 = test system: EV-D68; set-up: method as in PMID 25554786; settings: cited from earlier work
smiles,measurement,setting,value
"Cc1cc(C(=O)NC(Cc2ccc(F)cc2)C(=O)NC(CC2CCCNC2=O)C(O)C#N)no1 [(R)-1, reference compound]",half-life [t1/2] in human plasma,[1],11 min
CCOC(=O)/C=C/[C@H](C[C@@H]1CCNC1=O)NC(=O)[C@@H](CC(=O)[C@@H](NC(=O)c1cc(C)on1)C(C)C)Cc1ccc(F)cc1 [AG7088],EC50,HRV,13 nM
same,EC50,EV71 [2]; EV71,1670 nM
Cc1cc(C(=O)NC(Cc2ccc(F)cc2)C(=O)NC(CC2CCCNC2=O)C2OC(=O)N(C(C)C)C2=N)no1 (stereo not shown) [FIOMC],Ki,EV71 3C^pro [3],33 ± 8 nM
same,EC50,[4],67 ± 1 nM
same,EC50,EV71-luciferase virus [5],92 ± 3 nM
same,EC50,EV71-luciferase virus [6],93 ± 7 nM
same,EC50,EV71-luciferase virus [7],104 ± 8 nM
same,Cytotoxicity,RD cells,no apparent cytotoxic effect
same,Cytotoxicity,HEK-293T cells,no apparent cytotoxic effect
same,Cytotoxicity,VeroE6 cells,no apparent cytotoxic effect
same,EC50,EV71-A,96 ± 1 nM
same,EC50,EV71-B,102 ± 9 nM
same,EC50,EV71-C,75 ± 3 nM
same,EC50,CVA16,125 ± 2 nM
same,EC50,CVB3,80 ± 4 nM
same,EC50,five viral strains,80 to 125 nM
same,replication of EV71-GFP in phenotype screen,EV71-GFP,positive results
same,expression of EV71 VP1,EV71 VP1,inhibited
same,inhibitory effect by time of addition,EV71-luciferase virus [8],valid inhibitory effects regardless of the time
same,effect on replicon,pEV71-replicon RNA,impacted the virus replication stage
same,hydrolysis of 3BC by 3C^pro,EV71 3C^pro [9],distinctly restrained the hydrolysis
same,resistance mutation after continuous culture,EV71 [10],no mutation of EV71 virus
same,half-life [t1/2] in human plasma,[1],exceed 120 min
same,t1/2 in mouse plasma,[11],exceed 120 min
CCCN1C(=N)C(C(CC2CCCNC2=O)NC(=O)C(Cc2ccc(F)cc2)NC(=O)c2cc(C)on2)OC1=O (stereo not shown) [FOPMC],Ki,EV71 3C^pro [3],83 ± 1 nM
same,EC50,[4],123 ± 4 nM
same,EC50,EV71-luciferase virus [5],244 ± 12 nM
same,EC50,EV71-luciferase virus [6],299 ± 28 nM
same,EC50,EV71-luciferase virus [7],202 ± 15 nM
same,Cytotoxicity,RD cells,no apparent cytotoxic effect
same,Cytotoxicity,HEK-293T cells,no apparent cytotoxic effect
same,Cytotoxicity,VeroE6 cells,no apparent cytotoxic effect
same,EC50,EV71-A,115 ± 2 nM
same,EC50,EV71-B,135 ± 4 nM
same,EC50,EV71-C,128 ± 9 nM
same,EC50,CVA16,217 ± 14 nM
same,EC50,CVB3,210 ± 5 nM
same,replication of EV71-GFP in phenotype screen,EV71-GFP,positive results
same,expression of EV71 VP1,EV71 VP1,inhibited
same,inhibitory effect by time of addition,EV71-luciferase virus [8],valid inhibitory effects regardless of the time
same,effect on replicon,pEV71-replicon RNA,impacted the virus replication stage
same,hydrolysis of 3BC by 3C^pro,EV71 3C^pro [9],distinctly restrained the hydrolysis
same,resistance mutation after continuous culture,EV71 [10],no mutation of EV71 virus
same,half-life [t1/2] in human plasma,[1],exceed 120 min
same,t1/2 in mouse plasma,[11],exceed 120 min
O=c1c(O)c(-c2ccc(O)c(O)c2)oc2cc(O)ccc12 [Fisetin],EC50,EV71 [2]; anti-EV71 activity,85000 nM
"CCON=Cc1ccc(OCCC(C)CCN2CCN(c3ccncc3)C2=O)cc1 (stereo not shown) [GPP3, reference compound]",inhibitory effect by time of addition,EV71-luciferase virus [8],dramatically decreased from 4 hpi
O=c1cc(-c2ccc(O)c(O)c2)oc2cc(O[C@@H]3O[C@H](CO)[C@@H](O)[C@H](O)[C@H]3O)cc(O)c12 [Luteoloside],EC50,EV71 [2]; cytopathy caused by EV71 infection,430000 nM
Cc1cc(CCCOc2c(C)cc(-c3noc(C(F)(F)F)n3)cc2C)on1 [pleconaril],EC50,EV-D68,430 nM
O=c1c(O)c(-c2ccc(O)c(O)c2)oc2cc(O)cc(O)c12 [quercetin],EC50,EV71 [2]; EV71,12100 nM
C[C@@H]1O[C@@H](OC[C@H]2O[C@@H](Oc3c(-c4ccc(O)c(O)c4)oc4cc(O)cc(O)c4c3=O)[C@H](O)[C@@H](O)[C@@H]2O)[C@H](O)[C@H](O)[C@H]1O [rutin],EC50,EV71 [2]; anti-EV71 activity,110000 nM
